The source of these data is article PMC2614347, “A Novel Peptide Enhances Therapeutic Efficacy of Liposomal Anti-Cancer Drugs in Mice Models of Human Lung Cancer” (PLoS ONE, 2009).

Ends that are not written are not given here.

Data set [1] has as its system surgical specimens of human lung cancer (pulmonary adenocarcinoma). Description: Binding of phages and synthetic peptides to surgical specimens of lung cancer, immunohistochemistry. The method, then:
For localization of peptide binding on lung cancer tissues, frozen sections of NSCLC tissues were prepared and incubated with phage clones or biotin-labeled peptides. For the peptide competitive inhibition assay, phages were mixed with the synthetic targeting or mutant peptide. The slides were subjected to routine immunohistochemical staining, [30]. All surgical specimens were obtained from the tissue bank of National Taiwan University Hospital (NTUH) with approval from the Institutional Review Board in NTUH (IRB9461702021).

The test system of data set [2] is CL1-5 cells. Description: Phage binding and peptide competition, flow cytometry. Set-up: species or system human. As to conditions: fraction of cells gated for positive binding. As to the method:
(§1) The lung and other cancer cell lines were collected using PBS containing 50 mM EDTA, then incubated with phages or FITC-labeled peptides. For the peptide competitive inhibition assay, phages were mixed with different concentrations of the synthetic peptide and the mixture was incubated with the cells. After washing, the phage-bound cells were incubated with anti-M13 mAbs and then treated with FITC-conjugated goat anti-mouse IgG antibody. Cells were washed and analyzed with a flow cytometer (Becton Dickinson)
(§2) Fig. S2. The binding activity of PC5-2 to NSCLC cells was analyzed by flow cytometry. The samples included cells only (a, green), control phage (b, red), and PC5-2 (blue). The percentages indicate the fraction of cells gated for positive binding (c).

For another data set, the system named is NPC-TW01 cells. Description: Phage binding, immunofluorescent staining. Set-up: species or system human.
The subject of a further data set is NNM cells. The experiment in a line: Phage binding, flow cytometry. Also on record: species or system human. The method, then: as §1, §2
The next data set has as its system SAS cells. Description: Phage binding, flow cytometry. Also on record: species or system human. The method, then: as §1, §2
The subject of data set [3] is CL1-5 cells. Description: Phage binding to cells, immunohistochemical staining. Also on record: species or system human. Conditions: immunohistochemistry, anti-M13 mAb. As to the method:
(§3) Cells were plated and grown to about 80% confluence on cover slips. The cover slips were treated with 3% hydrogen peroxide plus 0.1% NaN3 to block endogenous peroxidase activity, and then incubated with phages. After the cover slips had been washed and fixed with 3% paraformaldehyde, they were incubated with HRP-labeled mouse anti-M13 mAb and treated with peroxidase substrate. For the peptide binding assays, 30 µg/ml FITC-labeled SP5-2 or control peptide was added on each cover slip and incubated. They were counterstained with Hoechst 33258 (Molecular Probes, OR, USA) and mounted with a mounting solution (Vector, CA, USA). The cells were then examined under a Leica universal microscope. The images were merged using the SimplePCI software (C-IMAGING, PA, USA).

Another data set deals with oral cancer (SAS) cells. Described as above. Set-up: species or system human. Conditions: immunohistochemistry, anti-M13 mAb. The method, then:
as §3

The test system of data set [4] is normal epithelial cells (NNM) from nasal mucosa. Described as above. Also on record: species or system human. As to conditions: immunohistochemistry, anti-M13 mAb. The method, then: as §3
The test system of data set [5] is PC13 cells. Described as above. Also on record: species or system human. Conditions: immunohistochemistry, anti-M13 mAb. As to the method:
as §3

Data set [6] deals with nasopharyngeal carcinoma cells (NPC-TW01). The data set is described as above. Set-up: species or system human. As to conditions: immunohistochemistry, anti-M13 mAb. The method, then: as §3
For the next data set, the system named is CL1-5-derived tumors. Description: In vivo homing and tissue distribution of phages. Set-up: species or system SCID mice. As to the method:
SCID mice were injected subcutaneously (s.c.) in the dorsolateral flank with 1×10^7 human NSCLC cells. The mice bearing size-matched lung cancer xenografts (approximately 500 mm^3) were injected i.v. with 10^9 pfu of the targeting or control phage. After perfusion, xenograft tumors and mouse organs were removed and homogenized. The phages bound to each tissue sample were recovered through the addition of ER2738 bacteria and titered on IPTG/X-Gal agar plates. In the peptide competitive inhibition experiments, the phages were injected along with 100 µg synthetic targeting peptide, control peptide or mutant peptide. The organs and tumor masses were fixed in Bouin's solution (Sigma, MO, USA). After fixation, the samples were embedded in paraffin blocks. The paraffin sections were deparaffinized, rehydrated, and subjected to immunostaining using the mouse M13 mAb as described above.

Data set [7] has as its system PC13 cells.
Protocol: (§4) FITC-labeled SP5-2 binding to NSCLC cells was analyzed by flow cytometry.
Data set [8] has as its system CL1-5 cells.
Protocol: as §4
The test system of a further data set is NSCLC xenografts. The experiment in a line: Doxorubicin autofluorescence microscopy of tumor sections. Type of data set: in vivo, SCID mice. As to conditions: fluorescence microscope; 1, 4 and 24 hours post-injection. The source says: Tissue sections were imaged with a FLUAR 10×/0.50 NA lens and captured with a Roper Scientific CoolSnap HQ CCD camera. All images were captured in 8-bit signal depth and subsequently pseudo-colored.

Data set [9] can be described thus: Pharmacokinetic and biodistribution study of doxorubicin formulations. Format: in vivo, SCID mice. As to conditions: 2 mg/kg i.v., n = 3 per time point. The method, then:
At selected time points, three mice in each group were anaesthetized and sacrificed. Blood samples were collected through submaxillary punctures, and plasma samples were prepared. After perfusion, xenograft tumors and mouse organs were removed and homogenized.

In the next data set the test system is CL1-5-derived xenografts. Description: Ligand-targeted therapy of lung cancer xenografts. Format: in vivo, SCID mice. As to conditions: doxorubicin 1 mg/kg i.v. twice a week, eight injections; n = 6. As to the method:
Mice 4–6 weeks of age were injected s.c. in the dorsolateral flank with human NSCLC cells. […] Mouse body weights and tumor sizes were measured twice a week. Tumor volumes were calculated using the equation: length×(width)^2×0.52. Animal care was carried out in accordance with guidelines of Academia Sinica, Taiwan.

Another data set has as its system H460-derived xenografts. The experiment in a line: Ligand-targeted therapy of lung cancer xenografts. Format: in vivo, SCID mice. Conditions: doxorubicin 1 mg/kg i.v. twice a week, eight injections.

Protocol for A549 cells: as §4
Protocol for H23 cells: as §4
Protocol for H460 cells: as §4

For TDSILRSYDWTY [PC5-2], the “Recognition of tumor cells of NSCLC surgical specimens” value in data set [1] (frozen sections) is on record as “recognized”. For the same compound, in data set [1] (human lung cancer surgical specimen HLC 1), the “Reaction area, HLC 1” value is “+++ (>50%)”. The “Reaction area, HLC 2” value in [1] (human lung cancer surgical specimen HLC 2) is recorded as “+++ (>50%)”. Moreover, in data set [1] (human lung cancer surgical specimen HLC 3), the “Reaction area, HLC 3” value is recorded as “- (0%)”. In addition, the “Reaction area, HLC 4” value in data set [1] (human lung cancer surgical specimen HLC 4) is “+ (<20%)”. Moreover, the “Reaction area, HLC 5” value in data set [1] (human lung cancer surgical specimen HLC 5) was “+++ (>50%)”. In addition, the “Reaction area, HLC 6” value in data set [1] (human lung cancer surgical specimen HLC 6) was “++ (50~20%)”. Further, the “Reaction area, HLC 7” value in data set [1] (human lung cancer surgical specimen HLC 7) is given as “++ (50~20%)”. The “Reaction area, HLC 8” value in data set [1] (human lung cancer surgical specimen HLC 8) was “++ (50~20%)”. In data set [1] (human lung cancer surgical specimen HLC 9), the “Reaction area, HLC 9” value was “+ (<20%)”. Further, the “Reaction area, HLC 10” value in data set [1] (human lung cancer surgical specimen HLC 10) was “- (0%)”. For the same compound, the “Reaction area, HLC 11” value in data set [1] (human lung cancer surgical specimen HLC 11) was “++ (50~20%)”. Moreover, the “Reaction area, HLC 12” value in [1] (human lung cancer surgical specimen HLC 12) was “++ (50~20%)”. Besides, in data set [1] (human lung cancer surgical specimen HLC 13), the “Reaction area, HLC 13” value was “+ (<20%)”. Besides, the “Reaction area, HLC 14” value in [1] (human lung cancer surgical specimen HLC 14) is on record as “- (0%)”. The “Reaction area, HLC 15” value in data set [1] (human lung cancer surgical specimen HLC 15) is reported as “+++ (>50%)”. Also, in data set [1] (human lung cancer surgical specimen HLC 16), the “Reaction area, HLC 16” value was “- (0%)”. Besides, in [1] (human lung cancer surgical specimen HLC 17), the “Reaction area, HLC 17” value is “- (0%)”. The “Reaction area, HLC 18” value in [1] (human lung cancer surgical specimen HLC 18) is “++ (50~20%)”. Moreover, the “Reaction area, HLC 19” value in data set [1] (human lung cancer surgical specimen HLC 19) is listed as “+++ (>50%)”. Also, the “Reaction area, HLC 20” value in [1] (human lung cancer surgical specimen HLC 20) is reported as “+++ (>50%)”. The “Reaction area, HLC 21” value in data set [1] (human lung cancer surgical specimen HLC 21) was “++ (50~20%)”. Further, in data set [1] (human lung cancer surgical specimen HLC 22), the “Reaction area, HLC 22” value is “- (0%)”. Besides, in [1] (human lung cancer surgical specimen HLC 23), the “Reaction area, HLC 23” value is reported as “- (0%)”. Also, the “Reaction area, HLC 24” value in [1] (human lung cancer surgical specimen HLC 24) is given as “++ (50~20%)”. For the same compound, in data set [1] (human lung cancer surgical specimen HLC 25), the “Reaction area, HLC 25” value is listed as “+++ (>50%)”. In addition, the “Reaction area, HLC 26” value in [1] (human lung cancer surgical specimen HLC 26) is on record as “+++ (>50%)”. In [1] (human lung cancer surgical specimen HLC 27), the “Reaction area, HLC 27” value was “+ (<20%)”. Further, the “Reaction area, HLC 28” value in data set [1] (human lung cancer surgical specimen HLC 28) is on record as “++ (50~20%)”. Besides, in data set [1] (human lung cancer surgical specimen HLC 29), the “Reaction area, HLC 29” value is “- (0%)”. Besides, the “Reaction area, HLC 30” value in data set [1] (human lung cancer surgical specimen HLC 30) is “++ (50~20%)”. For the same compound, the “Reaction area, HLC 31” value in data set [1] (human lung cancer surgical specimen HLC 31) is recorded as “++ (50~20%)”. Besides, the “Reaction area, HLC 32” value in data set [1] (human lung cancer surgical specimen HLC 32) is on record as “- (0%)”. In addition, the “Reaction area, HLC 33” value in data set [1] (human lung cancer surgical specimen HLC 33) is on record as “++ (50~20%)”. The “Reaction area, HLC 34” value in data set [1] (human lung cancer surgical specimen HLC 34) is reported as “+++ (>50%)”. In data set [1] (human lung cancer surgical specimen HLC 35), the “Reaction area, HLC 35” value is “+ (<20%)”. Besides, the “Reaction area, HLC 36” value in data set [1] (human lung cancer surgical specimen HLC 36) is listed as “++ (50~20%)”. Moreover, the “CL1-5 cells bound by phage” value with CL1-5 cells [2] is listed as 42.6%. Besides, the results for the “Binding of phage to NPC-TW01 cells” value (with NPC-TW01 cells; in [6]) were “did not bind” and “bound neither”, respectively. Also, the “Binding of phage to NNM cells” value in the data set on NNM cells is recorded as “did not bind”; in [4], “nor to normal epithelial cells”. Also, the figures for the “Binding of phage to SAS cells” value with SAS cells and in the data set with oral cancer (SAS) cells were “did not bind” and “bound neither”, respectively. Moreover, the “Binding of phage to CL1-5 cells” value with CL1-5 cells [3] is on record as “bound specifically”. Besides, the “Binding of phage to PC13 cells” value in the data set on PC13 cells [5] is recorded as “bound specifically”. Further, in the data set with CL1-5-derived tumors (brain, heart and lung tissues), the “Immunohistochemical localization of phage in normal organs after i.v. injection” value was “no reaction product detected”. Moreover, the “Phage concentration in tumor masses relative to control organs” value in the data set on CL1-5-derived tumors (i.v. 10^9 pfu, recovered after perfusion, control organs brain, heart and lungs) was 15 fold. Besides, in the data set on CL1-5-derived tumors (tumor sections, anti-M13 mAb), the “Immunohistochemical localization of phage in tumor tissues after i.v. injection” value is given as “localize in tumor tissues”.

Turning to TDSILRSYDWTY [SP5-2], the “Proportion of H460 cells bound by SP5-2” value with H460 cells was determined as 45.8%. In addition, the “Proportion of PC13 cells bound by SP5-2” value in the data set with PC13 cells [7] was found to be 20.1%. In addition, in the data set on A549 cells, the “Proportion of A549 cells bound by SP5-2” value is reported as 44.3%. In the data set on CL1-5 cells [8], the “Proportion of CL1-5 cells bound by SP5-2” value amounted to 43.0%. Moreover, the “Proportion of H23 cells bound by SP5-2” value with H23 cells was 44.0%.

`COc1cccc2c1C(=O)c1c(O)c3c(c(O)c1C2=O)C[C@@](O)(C(=O)CO)C[C@@H]3O[C@H]1C[C@H](N)[C@H](O)[C@H](C)O1` [FD, doxorubicin]: in the data set on NSCLC xenografts, the “Areas of tumor sections with detectable doxorubicin” value is reported as “no detectable doxorubicin”. For the same compound, the “Blood concentration of doxorubicin after administration” value in data set [9] (tail vein, spectrofluorometry) is on record as “drops to background level within one hour”. In addition, in data set [9] (nuclear doxorubicin in tumor), the “AUC0-48 h, Nuclear” value is given as 3.7 μg h/g tumor. Besides, the “AUC0–48 hours of bioavailable doxorubicin (bound to nuclei)” value in data set [9] (tumor cell nuclei, spectrofluorometry) amounted to 3.7 µg·h/g. Besides, in the data set with CL1-5-derived xenografts, the “Tumor size smaller than that in the PBS group” value was determined as 16%. Further, the “Reduction of tumor size compared with PBS group” value in the data set with H460-derived xenografts is 14%.

With “DMPKQLLAPWYY [PC5-4, phage clone displaying […]]”, in the data set with CL1-5-derived tumors (i.v., recovered after perfusion, SCID mice bearing NSCLC xenografts (Fig. S4)), the “Recovery of PC5-4 phage from tumor versus control organs” value is reported as “higher than from control organs”.
